Reference: PMC6152791, “Synthesis and Evaluation of Novel 2-Pyrrolidone-Fused (2-Oxoindolin-3-ylidene)methylpyrrole Derivatives as Potential Multi-Target Tyrosine Kinase Receptor Inhibitors” (Molecules : A Journal of Synthetic Chemistry and Natural …, 2017)

What was measured:
786-O = experiment: Cell proliferation assay (MTT); type: cell-based, human; settings: for IC50: Homo sapiens, 786-0, MTT, 72 h incubation; for Selective Index (SI) 786-O: relative to Detroit 551 normal fibroblasts
Method: (§1) At the end of the incubation, cell viability was determined by 3-(4,5-dimethylthiazol-2-yl)-2,5-diphenyl tetrazolium bromide (MTT). The MTT formazan crystals were dissolved by DMSO, and the absorbance at 570 nm using a microplate spectrophotometer (Thermo Fisher Scientific, Waltham, MA, USA).

HCT116 = experiment: Cell proliferation assay (MTT); type: cell-based, human; settings: for IC50: Homo sapiens, HCT-116, MTT, 72 h incubation; for Selective Index (SI) HCT116: relative to Detroit 551 normal fibroblasts
Method: as §1

NCI-H460 = experiment: Cell proliferation assay (MTT); type: cell-based, human; settings: for IC50: Homo sapiens, NCI-H460, MTT, 72 h incubation; for Selective Index (SI) NCI-H460: relative to Detroit 551 normal fibroblasts
Method: as §1

Detroit 551 = experiment: Cell proliferation assay (MTT) on normal fibroblasts; type: cell-based; settings: Homo sapiens, 72 h incubation, normal fibroblast cells
Method: The HCT116 (human colon cancer cells, BCRC 60349) and Detroit 551 (human normal fibroblast cells, BCRC 60118) were maintained in DMEM (Gibco, Grand Island, NY, USA) containing 10% FBS (HyClone, Logan, UT, USA). NCI-H460 (BCRC 60373) and 786-O (BCRC 60243) were maintained in RPMI 1640 (Gibco, Grand Island, NY, USA) containing 10% FBS (HyClone, Logan, UT, USA). They were incubated at 37 °C in a 5% CO2 atmosphere.
The cells incubated as above were plated at a density of 2000 cells/well (cancer cells) or 10,000 cells/well (Detroit 551) on a 96-well plate for 24 h; serial dilutions of indicated compounds were added and incubated for additional 72 h. At the end of the incubation, cell viability was determined by 3-(4,5-dimethylthiazol-2-yl)-2,5-diphenyl tetrazolium bromide (MTT). The MTT formazan crystals were dissolved by DMSO, and the absorbance at 570 nm using a microplate spectrophotometer (Thermo Fisher Scientific, Waltham, MA, USA).

PDGFRβ = target: T1, PDGFRβ (Homo sapiens, UniProt P09619); experiment: In vitro kinase assay (HotSpot, 33P); type: biochemical; settings: ATP 10.0 μM; for inhibition at 0.05 µM: 50 nM compound
T1 construct: purchased Reaction Biology Corporation
Method: (§2) Briefly, specific kinase and substrate and required cofactors were prepared in reaction buffer. Test compounds were added into the reaction, after 20 min, a mixture of ATP (Sigma, St. Louis, MO, USA) and ^33P ATP (Perkin Elmer, Waltham, MA, USA) was added to make a final concentration of 10.0 μM. Reactions were stood at room temperature for 120 min, and spot the reactions onto P81 ion exchange filter paper (Whatman Inc., Piscataway, NJ, USA). Unbound phosphate was removed by extensive washing of filters in 0.1% phosphoric acid. Kinase activity data was reported as the percent remaining kinase activity in test compounds compared to solvent control (DMSO).

VEGFR-2 = target: T2, VEGFR-2 (Homo sapiens, UniProt P35968); experiment: In vitro kinase assay (HotSpot, 33P); type: biochemical; settings: ATP 10.0 μM; for inhibition at 0.05 µM: 50 nM compound
T2 construct: purchased Reaction Biology Corporation
Method: as §2

aurora A = target: T3, aurora A (Homo sapiens, UniProt O14965); experiment: In vitro kinase assay (HotSpot, 33P); type: biochemical; settings: 1.0 μM compound, ATP 10.0 μM
T3 construct: purchased Reaction Biology Corporation
T3 sequence (O14965 1-403): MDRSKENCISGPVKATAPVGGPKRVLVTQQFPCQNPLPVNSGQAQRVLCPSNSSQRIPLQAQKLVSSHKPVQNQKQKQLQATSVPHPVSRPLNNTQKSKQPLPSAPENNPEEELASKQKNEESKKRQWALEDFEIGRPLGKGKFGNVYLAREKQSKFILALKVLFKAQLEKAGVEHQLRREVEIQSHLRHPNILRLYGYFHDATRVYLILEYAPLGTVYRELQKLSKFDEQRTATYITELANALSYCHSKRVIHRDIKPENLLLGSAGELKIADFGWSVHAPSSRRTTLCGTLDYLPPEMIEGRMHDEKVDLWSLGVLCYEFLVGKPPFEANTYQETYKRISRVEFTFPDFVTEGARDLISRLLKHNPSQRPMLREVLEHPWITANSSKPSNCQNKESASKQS
Method: as §2, with “[…]. Briefly,” for “Briefly,”

HUVECs = experiment: In vitro VEGF-induced tube formation assay (Kurabo angiogenesis kit); type: cell-based, human; settings: for IC50: Homo sapiens, HUVEC, 264 h, VEGF 10 ng/mL, 11 days, read-out: IC50 of Tube Area
Method: Angiogenesis Kit (Kurabo, Neyagawa, Osaka, Japan) was used in accordance with the manufacturer’s protocols. Briefly, HUVECs and fibroblasts were co-cultured in 24-well plates with basal medium or solvent control medium (basal medium containing 1.0% DMSO) or solvent control medium containing 9, 10, 11, and 12 (0.50 μM, 0.25 μM and 0.10 μM). The medium renewals with or without agent in cultures were conducted every 3 days. After 11 days HUVECs were fixed and stained with anti-CD31 antibody in line with the manufacturer’s protocols. The tube formation area were measured using Angiogenesis Image Analyzer (Kurabo, Neyagawa, Osaka, Japan) with suaramin (70 μM) as positive control.

HCT116 cells = experiment: Cell cycle profile by image cytometry; type: cell-based, human; settings: 24 h
Method: Cell cycle profiles of HCT116 cells were determined with an NC-3000 image cytometer (ChemoMetec, Allerod, Denmark) in accordance with manufacturer’s protocol. Briefly, cells were seeded at 200,000 cells/well on a 6-well plate for 24 h. […] After incubation for 24 h, 100,000 cells were harvested and centrifuged for 5 min at 400 g at room temperature, washed once with PBS […] and resuspended with 50 μL of lysis buffer (ChemoMetec, Allerod, Denmark) containing 10 μg/mL of 2-(4-amidinophenyl)-1H-indole-6-carboxamidine (DAPI, ChemoMetec, Allerod, Denmark). The cells were incubated at 37 °C for 5 min, 50 μL of stabilization buffer (ChemoMetec, Allerod, Denmark) was added to the solution, and the cellular fluorescence was measured with an NC-3000 image cytometer using NC-SlideA8 (ChemoMetec, Allerod, Denmark). The NC-3000 software (ChemoMetec, Allerod, Denmark) was used for image acquisition, image analysis and quantification and data visualization.

[1] = tested on: Detroit 551, HCT116, NCI-H460 and 786-O cell lines; experiment: Acute cytotoxicity (WST-8, Cell-Counting-Kit-8); type: cell-based, human; settings: 10 μM, 6 h, WST-8, all tested cell lines
Method: Cells were seeded at 5000 cells/well on a 96-well plate for 24 h. The indicated compounds in different concentration (100 μL) were added to cells. Post 6 h, old medium was aspirated, and cells were washed three times with PBS. WST-8 (Dojindo, Rockville, MD, USA) (10 µL) was added to each well, and the absorbance of the plate was recorded at 450 nm on a microplate spectrophotometer (Thermo Fisher Scientific, Waltham, MA, USA).

T2 sequence (P35968 20-1356): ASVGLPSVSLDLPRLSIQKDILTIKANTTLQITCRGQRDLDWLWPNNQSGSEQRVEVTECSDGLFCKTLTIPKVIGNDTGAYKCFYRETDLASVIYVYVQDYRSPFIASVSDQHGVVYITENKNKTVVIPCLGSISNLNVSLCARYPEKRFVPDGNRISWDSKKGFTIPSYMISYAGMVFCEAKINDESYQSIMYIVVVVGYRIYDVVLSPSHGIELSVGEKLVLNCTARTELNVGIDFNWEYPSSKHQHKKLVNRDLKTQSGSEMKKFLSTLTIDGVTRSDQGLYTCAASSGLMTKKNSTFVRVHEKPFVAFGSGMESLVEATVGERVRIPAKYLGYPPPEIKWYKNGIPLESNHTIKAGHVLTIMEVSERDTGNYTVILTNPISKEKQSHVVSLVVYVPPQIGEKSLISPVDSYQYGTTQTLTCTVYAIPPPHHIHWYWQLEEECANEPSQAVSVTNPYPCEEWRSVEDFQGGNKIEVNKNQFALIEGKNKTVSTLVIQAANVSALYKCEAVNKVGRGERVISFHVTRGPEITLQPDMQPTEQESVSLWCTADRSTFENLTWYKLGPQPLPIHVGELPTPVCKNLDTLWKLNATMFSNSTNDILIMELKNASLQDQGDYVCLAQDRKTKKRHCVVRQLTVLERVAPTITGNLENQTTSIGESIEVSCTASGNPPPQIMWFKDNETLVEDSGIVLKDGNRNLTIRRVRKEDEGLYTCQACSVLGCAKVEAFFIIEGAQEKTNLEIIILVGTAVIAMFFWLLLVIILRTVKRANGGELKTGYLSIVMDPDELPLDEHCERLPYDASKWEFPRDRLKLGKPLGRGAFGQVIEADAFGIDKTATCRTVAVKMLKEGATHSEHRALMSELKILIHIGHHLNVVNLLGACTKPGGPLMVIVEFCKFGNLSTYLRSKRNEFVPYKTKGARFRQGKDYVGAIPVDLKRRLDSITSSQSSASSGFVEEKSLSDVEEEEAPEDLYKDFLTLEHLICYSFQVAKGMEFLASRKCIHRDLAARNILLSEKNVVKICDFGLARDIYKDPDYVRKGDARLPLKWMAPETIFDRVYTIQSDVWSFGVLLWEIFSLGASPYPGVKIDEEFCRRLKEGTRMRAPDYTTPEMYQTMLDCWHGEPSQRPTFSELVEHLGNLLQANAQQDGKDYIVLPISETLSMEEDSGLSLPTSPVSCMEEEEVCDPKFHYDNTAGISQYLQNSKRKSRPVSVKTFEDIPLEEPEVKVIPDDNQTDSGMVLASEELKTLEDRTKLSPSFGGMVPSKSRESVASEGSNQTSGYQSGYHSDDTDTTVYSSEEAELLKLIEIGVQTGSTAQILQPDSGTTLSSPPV
T1 sequence (P09619 33-1106): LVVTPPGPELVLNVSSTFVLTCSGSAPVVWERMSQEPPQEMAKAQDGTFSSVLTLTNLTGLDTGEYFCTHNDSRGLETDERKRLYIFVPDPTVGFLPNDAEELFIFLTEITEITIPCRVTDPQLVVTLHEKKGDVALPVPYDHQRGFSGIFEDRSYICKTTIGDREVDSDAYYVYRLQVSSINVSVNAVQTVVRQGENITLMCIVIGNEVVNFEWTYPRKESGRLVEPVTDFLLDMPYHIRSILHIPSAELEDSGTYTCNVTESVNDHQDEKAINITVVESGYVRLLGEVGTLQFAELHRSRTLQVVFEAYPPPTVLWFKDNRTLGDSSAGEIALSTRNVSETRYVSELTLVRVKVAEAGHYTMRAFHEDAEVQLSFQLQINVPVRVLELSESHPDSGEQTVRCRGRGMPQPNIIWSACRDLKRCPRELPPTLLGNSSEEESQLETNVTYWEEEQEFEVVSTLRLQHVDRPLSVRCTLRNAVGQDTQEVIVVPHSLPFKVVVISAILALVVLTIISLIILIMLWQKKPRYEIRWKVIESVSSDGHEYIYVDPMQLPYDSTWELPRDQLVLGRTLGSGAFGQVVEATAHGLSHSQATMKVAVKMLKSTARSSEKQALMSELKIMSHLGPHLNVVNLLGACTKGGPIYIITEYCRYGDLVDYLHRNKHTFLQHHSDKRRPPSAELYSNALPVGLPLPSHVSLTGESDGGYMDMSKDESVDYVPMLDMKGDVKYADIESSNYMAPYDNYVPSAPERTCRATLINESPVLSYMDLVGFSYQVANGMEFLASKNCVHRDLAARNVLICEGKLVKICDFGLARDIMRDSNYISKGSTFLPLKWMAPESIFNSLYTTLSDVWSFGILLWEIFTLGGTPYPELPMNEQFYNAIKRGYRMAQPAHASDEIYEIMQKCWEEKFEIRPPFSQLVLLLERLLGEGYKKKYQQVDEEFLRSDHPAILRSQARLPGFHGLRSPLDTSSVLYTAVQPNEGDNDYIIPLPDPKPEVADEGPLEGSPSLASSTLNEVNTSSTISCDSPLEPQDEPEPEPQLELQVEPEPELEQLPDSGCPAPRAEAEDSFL

Structure (SMILES)	IC50 (786-O)	IC50 (HCT116)	Selective Index (SI) HCT116 (HCT116)	IC50 (NCI-H460)	IC50 (Detroit 551)	inhibition at 0.05 µM (PDGFRβ)	IC50 (PDGFRβ)	inhibition at 0.05 µM (VEGFR-2)	IC50 (VEGFR-2)	inhibition at 1 µM (aurora A)	IC50 (HUVECs)	cell cycle profile effect (HCT116 cells; 5.0 μM)	melting point	Selective Index (SI) 786-O (786-O)	Selective Index (SI) NCI-H460 (NCI-H460)	tube formation IC50, fold stronger than sunitinib (HUVECs; vs sunitinib)	cell cycle profile effect (HCT116 cells; 1.0 μM)	anti-proliferation potency against HCT116, fold stronger than 8 (HCT116; vs 8 (C(5)-H))	anti-proliferation potency against HCT116, fold stronger than sunitinib (HCT116; vs sunitinib)	acute cellular toxicity [1]
CCN(CC)CCN1Cc2[nH]c(/C=C3\C(=O)Nc4ccccc43)c(C)c2C1=O [Compound 8, (Z)-3-((5-(2-(Diethylamino)ethyl)-3-methyl-4-oxo-1,4,5,6-tetrahydropyrrolo[3,4-b]pyrrol-2-yl)methylene)indolin-2-one]	> 10000 nM	4250 ± 1880 nM	>2.35	> 10000 nM	> 10000 nM	64%	22.4 nM	56%	30.2 nM	95.9%	310 ± 15 nM	increase phase of polyploid	167 to 168 °C	–	–	–	–	–	–	–
CCN(CC)CCN1Cc2[nH]c(/C=C3\C(=O)Nc4ccc(F)cc43)c(C)c2C1=O [Compound 9, (Z)-3-((5-(2-(Diethylamino)ethyl)-3-methyl-4-oxo-1,4,5,6-tetrahydropyrrolo[3,4-b]pyrrol-2-yl)methylene)-5-fluoroindolin-2-one]	> 10000 nM	2940 ± 660 nM	>3.4	> 10000 nM	> 10000 nM	36%	97.5 nM	35%	111 nM	93.1%	367 ± 16 nM	G0/G1 cell cycle arrest	245 to 246 °C	–	–	–	–	–	–	–
CCN(CC)CCN1Cc2[nH]c(/C=C3\C(=O)Nc4ccc(Cl)cc43)c(C)c2C1=O [Compound 10, (Z)-5-Chloro-3-((5-(2-(diethylamino)ethyl)-3-methyl-4-oxo-1,4,5,6-tetrahydropyrrolo[3,4-b]pyrrol-2-yl)methylene)indolin-2-one]	7300 ± 1200 nM	3090 ± 700 nM	>3.23	> 10000 nM	> 10000 nM	64%	24.9 nM	58%	35 nM	93.7%	299 ± 70 nM	G0/G1 cell cycle arrest	252 to 253 °C	>1.37	–	–	–	–	–	–
CCN(CC)CCN1Cc2[nH]c(/C=C3\C(=O)Nc4ccc(Br)cc43)c(C)c2C1=O [Compound 11, (Z)-5-Bromo-3-((5-(2-(diethylamino)ethyl)-3-methyl-4-oxo-1,4,5,6-tetrahydropyrrolo[3,4-b]pyrrol-2-yl)methylene)indolin-2-one]	7060 ± 300 nM	1050 ± 180 nM	>9.52	6570 ± 1640 nM	> 10000 nM	68%	16.1 nM	64%	24.7 nM	93.1%	179 ± 29 nM	–	266 to 267 °C	>1.42	>1.52	approximately 2 fold	increase phase of polyploid	–	–	–
CCN(CC)CCN1Cc2[nH]c(/C=C3\C(=O)Nc4ccc(I)cc43)c(C)c2C1=O [Compound 12, (Z)-3-((5-(2-(Diethylamino)ethyl)-3-methyl-4-oxo-1,4,5,6-tetrahydropyrrolo[3,4-b]pyrrol-2-yl)methylene)-5-iodoindolin-2-one]	7760 ± 290 nM	420 ± 160 nM	21.93	2950 ± 830 nM	9210 ± 1610 nM	62%	29.3 nM	58%	35.1 nM	92.9%	313 ± 37 nM	–	267 to 268 °C	1.19	3.12	–	G0/G1 cell cycle arrest	~10 fold	approximately 8 fold	–
CCN(CC)CCNC(=O)c1c(C)[nH]c(/C=C2\C(=O)Nc3ccc(F)cc32)c1C [Sunitinib, sunitinib, reference compound]	6270 ± 670 nM	3420 ± 570 nM	–	6230 ± 570 nM	–	44%	–	–	–	–	387 ± 16 nM	G0/G1 cell cycle arrest	–	–	–	–	–	–	–	nearly free from acute cellular toxicity
